Organism: Rattus norvegicus
Experiment: Open TG-GATES - Regimen: Single
Format: toxicity, organism-based, Sprague-Dawley
Design: regimen Single, gender Male, age 6 weeks
Conditions: in vivo, po, 30 mg/kg, route gavage, dose level High; for APTT / Bas / Eos / Fbg / Hb / Ht / Lym / MCH / MCHC / MCV / Mono / Neu / PT / Plat / RBC / Ret / WBC: tissue Blood; for KIDNEY_L / KIDNEY_R / KIDNEY_TOTAL: tissue Kidney; for LIVER: tissue Liver; for A/G / ALP / ALT / AST / BUN / CRE / Ca / Cl / DBIL / GLC / IP / K / LDH / Na / PL / RALB / TBIL / TC / TG / TP / gamma-GTP: tissue Plasma

Structure (SMILES): CN(C)CCC(c1ccc(Cl)cc1)c1ccccn1 (configuration not stated) [CHLORPHENIRAMINE]
- TERMINAL_BW (3 h): 197.2 g
- APTT (3 h): 16.3 s
- Bas (3 h): 0%
- Eos (3 h): 0.8%
- Fbg (3 h): 287.6 mg/dL
- Hb (3 h): 13.5 g/dL
- Ht (3 h): 42.6%
- Lym (3 h): 74.2%
- MCH (3 h): 21.2 pg
- MCHC (3 h): 31.8%
- MCV (3 h): 66.5 fL
- Mono (3 h): 3.4%
- Neu (3 h): 21%
- PT (3 h): 14.8 s
- Plat (3 h): 128.4 x10_4/uL
- RBC (3 h): 640.8 x10_4/ul
- Ret (3 h): 10.2%
- WBC (3 h): 67.1 x10_2/uL
- KIDNEY_L (3 h): 0.9 g
- KIDNEY_R (3 h): 0.9 g
- KIDNEY_TOTAL (3 h): 1.7 g
- LIVER (3 h): 9 g
- A/G (3 h): 0.9
- ALP (3 h): 1548.6 IU/L
- ALT (3 h): 43.6 IU/L
- AST (3 h): 79.2 IU/L
- BUN (3 h): 8.4 mg/dL
- CRE (3 h): 0.1 mg/dL
- Ca (3 h): 10.5 mg/dL
- Cl (3 h): 108.8 meq/L
- DBIL (3 h): 0.008 mg/dL
- GLC (3 h): 183.6 mg/dL
- IP (3 h): 10 mg/dL
- K (3 h): 4.1 meq/L
- LDH (3 h): 139.4 IU/L
- Na (3 h): 143.4 meq/L
- PL (3 h): 146.6 mg/dL
- RALB (3 h): 2.6 g/dL
- TBIL (3 h): 0.046 mg/dL
- TC (3 h): 79 mg/dL
- TG (3 h): 59 mg/dL
- TP (3 h): 5.5 g/dL
- gamma-GTP (3 h): 1.2 IU/L
- TERMINAL_BW (6 h): 191.8 g
- APTT (6 h): 24.9 s
- Bas (6 h): 0%
- Eos (6 h): 0.8%
- Fbg (6 h): 302 mg/dL
- Hb (6 h): 13.8 g/dL
- Ht (6 h): 42.4%
- Lym (6 h): 73.2%
- MCH (6 h): 20.9 pg
- MCHC (6 h): 32.5%
- MCV (6 h): 64.2 fL
- Mono (6 h): 3.4%
- Neu (6 h): 21.8%
- PT (6 h): 14.7 s
- Plat (6 h): 130.7 x10_4/uL
- RBC (6 h): 659.8 x10_4/ul
- Ret (6 h): 8.9%
- WBC (6 h): 76.3 x10_2/uL
- KIDNEY_L (6 h): 0.8 g
- KIDNEY_R (6 h): 0.8 g
- KIDNEY_TOTAL (6 h): 1.6 g
- LIVER (6 h): 8.2 g
- A/G (6 h): 0.9
- ALP (6 h): 1166.8 IU/L
- ALT (6 h): 37.4 IU/L
- AST (6 h): 72.4 IU/L
- BUN (6 h): 7.6 mg/dL
- CRE (6 h): 0.1 mg/dL
- Ca (6 h): 10.5 mg/dL
- Cl (6 h): 108 meq/L
- DBIL (6 h): 0.006 mg/dL
- GLC (6 h): 181 mg/dL
- IP (6 h): 10.2 mg/dL
- K (6 h): 4.4 meq/L
- LDH (6 h): 126 IU/L
- Na (6 h): 142.4 meq/L
- PL (6 h): 138.4 mg/dL
- RALB (6 h): 2.5 g/dL
- TBIL (6 h): 0.042 mg/dL
- TC (6 h): 83.6 mg/dL
- TG (6 h): 35 mg/dL
- TP (6 h): 5.4 g/dL
- gamma-GTP (6 h): 1.4 IU/L
- TERMINAL_BW (9 h): 189.4 g
- APTT (9 h): 19.9 s
- Bas (9 h): 0%
- Eos (9 h): 1%
- Fbg (9 h): 317 mg/dL
- Hb (9 h): 13.6 g/dL
- Ht (9 h): 42.2%
- Lym (9 h): 73.8%
- MCH (9 h): 20.7 pg
- MCHC (9 h): 32.3%
- MCV (9 h): 64.2 fL
- Mono (9 h): 2.6%
- Neu (9 h): 22.2%
- PT (9 h): 14.9 s
- Plat (9 h): 115 x10_4/uL
- RBC (9 h): 656.4 x10_4/ul
- Ret (9 h): 9.1%
- WBC (9 h): 68.4 x10_2/uL
- KIDNEY_L (9 h): 0.9 g
- KIDNEY_R (9 h): 0.9 g
- KIDNEY_TOTAL (9 h): 1.7 g
- LIVER (9 h): 8 g
- A/G (9 h): 0.9
- ALP (9 h): 1297.6 IU/L
- ALT (9 h): 35.2 IU/L
- AST (9 h): 71.8 IU/L
- BUN (9 h): 7.4 mg/dL
- CRE (9 h): 0.1 mg/dL
- Ca (9 h): 10.2 mg/dL
- Cl (9 h): 106.4 meq/L
- DBIL (9 h): 0.008 mg/dL
- GLC (9 h): 171.8 mg/dL
- IP (9 h): 10.4 mg/dL
- K (9 h): 4 meq/L
- LDH (9 h): 95 IU/L
- Na (9 h): 142.4 meq/L
- PL (9 h): 145 mg/dL
- RALB (9 h): 2.5 g/dL
- TBIL (9 h): 0.056 mg/dL
- TC (9 h): 84.2 mg/dL
- TG (9 h): 45 mg/dL
- TP (9 h): 5.4 g/dL
- gamma-GTP (9 h): 1.2 IU/L
- TERMINAL_BW (24 h): 198.3 g
- APTT (24 h): 17 s
- Bas (24 h): 0.2%
- Eos (24 h): 1.2%
- Fbg (24 h): 324.6 mg/dL
- Hb (24 h): 13.6 g/dL
- Ht (24 h): 41.8%
- Lym (24 h): 79.8%
- MCH (24 h): 20.8 pg
- MCHC (24 h): 32.6%
- MCV (24 h): 63.8 fL
- Mono (24 h): 2.6%
- Neu (24 h): 15.6%
- PT (24 h): 14.8 s
- Plat (24 h): 114.6 x10_4/uL
- RBC (24 h): 655.4 x10_4/ul
- Ret (24 h): 7.8%
- WBC (24 h): 93.8 x10_2/uL
- KIDNEY_L (24 h): 0.9 g
- KIDNEY_R (24 h): 0.9 g
- KIDNEY_TOTAL (24 h): 1.8 g
- LIVER (24 h): 8 g
- A/G (24 h): 0.9
- ALP (24 h): 1572.4 IU/L
- ALT (24 h): 45.8 IU/L
- AST (24 h): 78.4 IU/L
- BUN (24 h): 12.4 mg/dL
- CRE (24 h): 0.2 mg/dL
- Ca (24 h): 10.8 mg/dL
- Cl (24 h): 109 meq/L
- DBIL (24 h): 0.012 mg/dL
- GLC (24 h): 185 mg/dL
- IP (24 h): 7.9 mg/dL
- K (24 h): 4.6 meq/L
- LDH (24 h): 120.4 IU/L
- Na (24 h): 142.4 meq/L
- PL (24 h): 145.4 mg/dL
- RALB (24 h): 2.6 g/dL
- TBIL (24 h): 0.046 mg/dL
- TC (24 h): 89.4 mg/dL
- TG (24 h): 41.4 mg/dL
- TP (24 h): 5.6 g/dL
- gamma-GTP (24 h): 1.4 IU/L
